The numbers were not newly measured in patent US20230285483A1, “TINCTURE CONTAINING CANNABINOIDS, METHOD OF USING, AND METHOD OF MAKING THE SAME” (priority 2022, published 2023), which cites them from elsewhere.

The target in series [1] is spike proteins found on the virus (Severe acute respiratory syndrome coronavirus 2, UniProt P0DTC2). Conditions: study by researchers at Oregon State University.
The test system of another series is coronavirus. Conditions: study by researchers at Oregon State University.

Regarding `C=C(C)[C@@H]1CCC(C)=C[C@H]1c1c(O)cc(CCCCC)c(C(=O)O)c1O` [CBDa, cannabidiolic acid], the “binding to spike proteins found on the virus” value in series [1] is given as “bind to spike proteins”. Further, the “blocking of a step the pathogen uses to infect people” value with coronavirus is recorded as “blocked a step the pathogen uses to infect people”.

On to `CCCCCc1cc(O)c(C/C=C(\C)CCC=C(C)C)c(O)c1C(=O)O` [CBGa, cannabigerolic acid], for which the “binding to spike proteins found on the virus” value in series [1] was “bind to spike proteins”. The “blocking of a step the pathogen uses to infect people” value in the series on coronavirus is reported as “blocked a step the pathogen uses to infect people”.
